Laboratory results from PMC3429506, “Screening for Novel LRRK2 Inhibitors Using a High-Throughput TR-FRET Cellular Assay for LRRK2 Ser935 Phosphorylation” (PLoS ONE, 2012).
pIC50: −log10 of the molar value. Values joined by “and” are separate entries in the source; they are usually repeats but may differ in a detail not shown here. Equal entries are not always repeated.

Columns and labels:
LRRK2 G2019S [1] = target: T1, LRRK2 G2019S (Homo sapiens, UniProt Q5S007, G2019S); assay: In vitro biochemical LRRK2 TR-FRET activity assay; settings: for pIC50: LRRK2 G2019S, ATP 134 µM (Km,app), LRRKtide substrate, three independent experiments, read-out: Biochemical LRRK2 assay IC50 +/- SD; for effect on LRRK2 activity in vitro: result in words
Protocol: The Biochemical LRRK2 TR-FRET activity assay was performed according to the manufacture recommended assay protocol (Life Technologies). […] After incubation at room temperature for 1 hour, the kinase reactions were stopped by addition of 10 µL of 20 mM EDTA and 4 nM Tb-anti-pERM (pLRRKtide) antibody in TR-FRET dilution buffer (Life Technologies). After a 30 minute incubation at room temperature, TR-FRET measurements were obtained on a BMG PHERAstar plate reader using LanthaScreen® filters and settings. A 16 point, 2-fold dilution series of each compound was tested in triplicate at each concentration and assays were also performed in triplicate.

LRRK2 G2019S [2] = target: T1, LRRK2 G2019S; assay: TR-FRET cellular assay for LRRK2 Ser935 phosphorylation, SH-SY5Y cells, BacMam LRRK2-GFP G2019S (incl. Tocriscreen Mini library screen and follow-up); assay type: cell-based; design: This high-throughput assay utilizes cells expressing full-length human LRRK2 with a C-terminal GFP tag (LRRK2-GFP); host or cells: SH-SY5Y cells transduced with BacMam; settings: for %Inhibition Initial screen: 20 µM; for Cellular TR-FRET Assay Max % Inhibition: 90 min; for pIC50: three independent experiments
Protocol: (§1) U-2 OS cells are maintained in growth medium (McCoy’s 5A supplemented with 10% dialyzed FBS (dFBS), 10 mM HEPES, 0.1 mM NEAA, 1 mM Sodium Pyruvate, and 100 U/mL Penicillin/100 µg/mL Streptomycin). HEK293T cells are maintained in DMEM with 10% dFBS, 10 mM HEPES, 0.1 mM NEAA and 100 U/mL Penicillin/100 µg/mL Streptomycin. SH-SY5Y cells are maintained in DMEM/F-12 medium supplemented with 10% dFBS and 100 U/mL Penicillin/100 µg/mL Streptomycin. […] GIBCO® human neural stem cells (hNSCs) were propagated as an adherent culture in StemPro® NSC SFM according to the manufacturer’s recommended protocol (Life Technologies). For BacMam transduction of U-2 OS and HEK293T, cells were harvested, mixed with various amounts of BacMam LRRK2-GFP reagent (v/v) and plated onto 6-well plates. […] Cells were assayed in 384-well format (∼20,000 cells/well) 48 hours post-transduction as above.
(§2) Transduced cells in the 384-well assay plate were incubated with indicated inhibitors (5X, 5 µL/well) for 60 to 90 minutes. During this time, 6 X lysis buffer (Life Technologies) was supplemented with 30 nM Tb-labeled anti-LRRK2 pSer935 antibody and both protease and phosphatase inhibitor cocktails (Sigma). The complete 6 X lysis buffer was added to each well (5 µL/well) and the plates were incubated at room temperature in the dark for 2 hours. […] A sigmoidal dose-response equation with varying slope was used to fit the data and generate IC50 values. Z′-factor values were calculated as: Z′-factor = 1 - [(3 × stdevno virus +3 × stdevmaxvirus)/(avgmaxvirus – avgno-virus)]. The IC50 values reported in Table 1 are the averaged numbers from three independent experiments.
40 nL of 10 mM Tocris library compounds in DMSO were dispensed into each well of the assay plate by the ECHO system. Equal volumes of DMSO were dispensed into the control wells. Cells were incubated with compounds for 90 to 120 min prior to cell lysis and detection as described above. The percent inhibition is calculated as: [(average emission ratios of DMSO control wells – average emission ratios of compound wells)/(average emission ratios of DMSO control wells – average emission ratios of LRRK2-IN-1 treated wells)] * 100. For the dose-response follow-up studies, fresh compound DMSO stock solutions were prepared from powder. […] Z′-factor value was calculated as: Z′-factor = 1 - [(3 × stdevLRRK2-IN-1+3 × stdevDMSO)/(avgDMSO – avgLRRK2-IN-1)]. The IC50 values reported in Table 2 are the averaged numbers from three independent experiments for both cellular and biochemical TR-FRET assays and one representative result of two independent experiments for the cytotoxicity assay.

[3] = test system: SH-SY5Y cells expressing LRRK2-GFP G2019S; assay: Cytotoxicity assay (resazurin-based cell viability); settings: read-out: Cytotoxicity Assay IC50; same conditions as TR-FRET follow-up; one representative of two experiments
GFP-LRRK2 G2019S = target: T2, GFP-LRRK2 G2019S (Homo sapiens, UniProt Q5S007, G2019S); assay: Immunoprecipitation/Western analysis of LRRK2 phosphorylation at Ser910, Ser935, Ser955, Ser973 in HEK293 T-REx GFP-LRRK2 G2019S cells; assay type: cell-based; settings: for effect on phosphorylation of Ser910, Ser935, Ser955 and Ser973 (IP-Western): 20 µM, 90 min, HEK293 GFP-LRRK2 G2019S, Figure 6
T2 construct: expressed in transfected cells
Protocol: (§3) Immunoblot analysis: BacMam LRRK2-GFP transduced U-2 OS or SH-SY5Y cells (10^7 cells) were left untreated or treated with 3 µM LRRK2-IN-I for 90 min. For lysate preparation, the cells were washed once with ice-cold PBS and lysed by addition of ice-cold lysis buffer (20 mM Tris-HCl, pH 7.4, 1% NP-40, 5 mM EDTA, 5 mM NaF, 150 mM NaCl, and 1∶100 of protease and phosphatase inhibitor cocktails). The lysate was cleared of debris by centrifugation. Equal amount of total protein was loaded onto each lane for SDS-PAGE (3–8% Tris Acetate). The proteins were transferred onto nitrocellulose membrane using the iBLOT® dry blotting system (Life Technologies) according to manufacturer’s protocol. The membranes were blocked and incubated with a primary antibody against LRRK2 (Cell Signaling Technologies), followed by incubation with alkaline phosphatase-conjugated secondary antibody (WesternBreeze® chromogenic Kit, Life Technologies). The blot was developed by using the chromogenic BCIP/NBT substrate (WesternBreeze® chromogenic Kit, Life Technologies). […] Two days post induction, cells were treated for 90 minutes in the presence of 20 µM of compound or DMSO vehicle control. Cells were rapidly lysed in ice cold lysis buffer 50 mM Tris/HCl, pH 7.5, 1 mM EGTA, 1 mM EDTA, […] 1 mM sodium orthovanadate, 10 mM sodium beta-glycerolphosphate, 50 mM NaF, 5 mM sodium pyrophosphate, 0.27 M sucrose, 1 mM benzamidine and 2 mM phenylmethanesulphonylfluoride (PMSF) and one tablet each complete protease inhibitor and PhosSTOP phosphatase inhibitor (Roche) and was supplemented with 1% (v/v) Triton X-100. GFP-LRRK2 was immunoprecipitated with GFP nanotrap beads (ChromoTek). Immunecomplexes were washed twice with lysis buffer supplemented with 300 mM NaCl and once with Buffer A (50 mM Tris/HCl, pH 7.5, 50 mM NaCl, 0.1 mM EGTA and 0.1% (v/v) 2-mercaptoethanol, and 0.27 M sucrose).

LRRK2 A2016T/G2019S = target: T3, LRRK2 A2016T/G2019S (Homo sapiens, UniProt Q5S007, A2016T/G2019S); assay: Immunoprecipitation/Western analysis of LRRK2 phosphorylation in T-REx HEK293 cells expressing inhibitor desensitizing mutant; assay type: cell-based; settings: for effect of desensitizing mutation A2016T/G2019S on compound-induced dephosphorylation (IP-Western): 20 µM, Figure 6 IRM
T3 construct: expressed in transfected cells
Protocol: as §3

LRRK2 wild-type [4] = target: T4, LRRK2 wild-type (Homo sapiens, UniProt Q5S007); assay: TR-FRET cellular assay for LRRK2 Ser935 phosphorylation, HEK293T cells, BacMam LRRK2-GFP wild-type; design: This high-throughput assay utilizes cells expressing full-length human LRRK2 with a C-terminal GFP tag (LRRK2-GFP); host or cells: HEK293T cells transduced with BacMam; settings: WT, +/- SD, three independent experiments, * = partial inhibition, read-out: IC50, TR-FRET cell-based assay for Ser935 phosphorylation of LRRK2
Protocol: as §1, §2

LRRK2 G2019S [5] = target: T1, LRRK2 G2019S; assay: TR-FRET cellular assay for LRRK2 Ser935 phosphorylation, HEK293T cells, BacMam LRRK2-GFP G2019S; design: This high-throughput assay utilizes cells expressing full-length human LRRK2 with a C-terminal GFP tag (LRRK2-GFP); host or cells: HEK293T cells transduced with BacMam; settings: +/- SD, three independent experiments, * = partial inhibition, read-out: IC50, TR-FRET cell-based assay for Ser935 phosphorylation of LRRK2
Protocol: as §1, §2

LRRK2 wild-type [6] = target: T4, LRRK2 wild-type; assay: TR-FRET cellular assay for LRRK2 Ser935 phosphorylation, U-2 OS cells, BacMam LRRK2-GFP wild-type; assay type: cell-based; design: This high-throughput assay utilizes cells expressing full-length human LRRK2 with a C-terminal GFP tag (LRRK2-GFP); host or cells: U-2 OS cells transduced with BacMam; settings: WT, +/- SD, three independent experiments, * = partial inhibition, read-out: IC50, TR-FRET cell-based assay for Ser935 phosphorylation of LRRK2
Protocol: as §1, §2

LRRK2 G2019S [7] = target: T1, LRRK2 G2019S; assay: TR-FRET cellular assay for LRRK2 Ser935 phosphorylation, U-2 OS cells, BacMam LRRK2-GFP G2019S; assay type: cell-based; design: This high-throughput assay utilizes cells expressing full-length human LRRK2 with a C-terminal GFP tag (LRRK2-GFP); host or cells: U-2 OS, SH-SY5Y, HEK293T cells or human neural stem cells transduced with BacMam; settings: G2019S, +/- SD, three independent experiments, * = partial inhibition, read-out: IC50, TR-FRET cell-based assay for Ser935 phosphorylation of LRRK2
Protocol: as §1, §2

LRRK2 wild-type [8] = target: T4, LRRK2 wild-type; assay: TR-FRET cellular assay for LRRK2 Ser935 phosphorylation, SH-SY5Y cells, BacMam LRRK2-GFP wild-type; assay type: cell-based; design: This high-throughput assay utilizes cells expressing full-length human LRRK2 with a C-terminal GFP tag (LRRK2-GFP); host or cells: SH-SY5Y cells transduced with BacMam; settings: WT, +/- SD, three independent experiments, * = partial inhibition, read-out: IC50, TR-FRET cell-based assay for Ser935 phosphorylation of LRRK2
Protocol: as §1, §2

[9] = dose-response follow-up, SH-SY5Y G2019S
[10] = dose-response follow-up, SH-SY5Y G2019S, read-out: Cellular TR-FRET Assay IC50 +/-SD
[11] = Tocriscreen Mini library screen, SH-SY5Y G2019S, relative to LRRK2-IN-1 control

T4 sequence (Q5S007 whole entry): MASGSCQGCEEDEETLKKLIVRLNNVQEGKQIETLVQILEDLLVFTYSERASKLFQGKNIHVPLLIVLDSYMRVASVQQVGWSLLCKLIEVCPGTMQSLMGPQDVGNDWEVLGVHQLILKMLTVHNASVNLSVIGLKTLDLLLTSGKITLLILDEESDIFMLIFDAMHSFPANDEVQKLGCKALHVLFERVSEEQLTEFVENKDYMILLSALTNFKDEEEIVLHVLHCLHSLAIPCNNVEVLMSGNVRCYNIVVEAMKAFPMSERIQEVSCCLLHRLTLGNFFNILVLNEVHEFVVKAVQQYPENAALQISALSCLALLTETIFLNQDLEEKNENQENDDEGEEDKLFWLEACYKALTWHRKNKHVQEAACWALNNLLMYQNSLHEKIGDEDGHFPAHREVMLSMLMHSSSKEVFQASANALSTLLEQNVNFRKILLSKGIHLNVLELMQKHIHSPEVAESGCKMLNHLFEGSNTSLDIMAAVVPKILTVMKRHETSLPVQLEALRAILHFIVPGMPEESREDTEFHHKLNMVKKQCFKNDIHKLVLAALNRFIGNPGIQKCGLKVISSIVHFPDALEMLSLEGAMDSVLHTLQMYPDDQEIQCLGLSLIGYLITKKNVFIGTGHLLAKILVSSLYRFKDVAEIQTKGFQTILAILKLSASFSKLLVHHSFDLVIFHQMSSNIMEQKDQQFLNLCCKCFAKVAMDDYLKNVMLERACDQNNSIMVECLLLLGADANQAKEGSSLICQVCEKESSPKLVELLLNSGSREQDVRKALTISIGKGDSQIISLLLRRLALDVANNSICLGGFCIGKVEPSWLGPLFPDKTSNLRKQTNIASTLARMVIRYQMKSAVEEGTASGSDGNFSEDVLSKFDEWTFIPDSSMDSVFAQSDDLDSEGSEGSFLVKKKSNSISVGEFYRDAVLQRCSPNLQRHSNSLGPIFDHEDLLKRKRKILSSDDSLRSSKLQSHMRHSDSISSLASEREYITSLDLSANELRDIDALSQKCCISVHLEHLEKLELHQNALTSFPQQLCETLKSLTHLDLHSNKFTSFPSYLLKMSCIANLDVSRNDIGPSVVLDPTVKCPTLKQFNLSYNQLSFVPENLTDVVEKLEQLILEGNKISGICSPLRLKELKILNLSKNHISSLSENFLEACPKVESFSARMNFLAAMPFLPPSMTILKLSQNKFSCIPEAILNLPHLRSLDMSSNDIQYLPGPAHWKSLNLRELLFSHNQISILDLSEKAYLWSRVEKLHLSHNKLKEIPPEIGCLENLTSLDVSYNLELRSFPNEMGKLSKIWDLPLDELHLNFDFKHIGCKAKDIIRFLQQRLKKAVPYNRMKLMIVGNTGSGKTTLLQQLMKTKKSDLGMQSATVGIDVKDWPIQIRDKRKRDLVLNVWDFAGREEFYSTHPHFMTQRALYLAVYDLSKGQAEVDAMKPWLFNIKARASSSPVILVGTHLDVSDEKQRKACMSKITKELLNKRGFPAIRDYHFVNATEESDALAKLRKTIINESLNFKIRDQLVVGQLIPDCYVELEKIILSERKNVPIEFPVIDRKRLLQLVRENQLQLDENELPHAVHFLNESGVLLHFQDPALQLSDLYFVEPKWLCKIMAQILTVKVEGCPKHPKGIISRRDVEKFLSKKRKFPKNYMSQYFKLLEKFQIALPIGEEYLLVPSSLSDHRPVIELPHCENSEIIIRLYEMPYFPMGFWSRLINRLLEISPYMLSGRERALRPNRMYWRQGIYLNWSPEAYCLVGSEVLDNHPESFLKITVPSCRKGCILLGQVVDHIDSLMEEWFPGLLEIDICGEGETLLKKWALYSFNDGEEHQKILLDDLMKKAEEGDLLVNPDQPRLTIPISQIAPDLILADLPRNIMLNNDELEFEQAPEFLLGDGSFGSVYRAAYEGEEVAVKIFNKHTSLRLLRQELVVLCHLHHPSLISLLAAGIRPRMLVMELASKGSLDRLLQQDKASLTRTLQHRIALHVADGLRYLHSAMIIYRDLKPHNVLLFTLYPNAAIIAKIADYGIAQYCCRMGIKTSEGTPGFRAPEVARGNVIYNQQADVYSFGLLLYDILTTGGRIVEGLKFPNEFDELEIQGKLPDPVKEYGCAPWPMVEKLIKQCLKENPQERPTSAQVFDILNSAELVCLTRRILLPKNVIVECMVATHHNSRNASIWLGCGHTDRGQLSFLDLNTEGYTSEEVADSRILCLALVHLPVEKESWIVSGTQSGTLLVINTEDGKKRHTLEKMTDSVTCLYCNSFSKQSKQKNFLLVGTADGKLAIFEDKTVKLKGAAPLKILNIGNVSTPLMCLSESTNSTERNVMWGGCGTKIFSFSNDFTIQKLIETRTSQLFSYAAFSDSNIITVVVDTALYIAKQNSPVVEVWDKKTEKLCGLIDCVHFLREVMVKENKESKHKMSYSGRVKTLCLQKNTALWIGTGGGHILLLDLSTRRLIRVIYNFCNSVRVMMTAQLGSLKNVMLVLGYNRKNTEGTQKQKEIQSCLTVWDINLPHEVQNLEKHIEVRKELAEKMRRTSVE
T3 sequence (Q5S007 whole entry A2016T/G2019S): as the sequence (Q5S007 whole entry) above, with A2016T, G2019S counted along it
T1 sequence (Q5S007 whole entry G2019S): as the sequence (Q5S007 whole entry) above, with G2019S counted along it
T2 sequence (Q5S007 whole entry G2019S): as the sequence (Q5S007 whole entry) above, with G2019S counted along it

Row | Compound | pIC50 (LRRK2 G2019S [1]) | effect on LRRK2 activity in vitro (LRRK2 G2019S [1]) | %Inhibition Initial screen (LRRK2 G2019S [2]) | Cellular TR-FRET Assay Max % Inhibition (LRRK2 G2019S [2]; [9]) [%] | pIC50 (LRRK2 G2019S [2]; [10]) | pIC50 [3] | effect on phosphorylation of Ser910, Ser935, Ser955 and Ser973 (IP-Western) (GFP-LRRK2 G2019S) | %Inhibition Initial screen (LRRK2 G2019S [2]; [11]) [%] | LRRK2 phosphorylation remaining, % of untreated G2019S (GFP-LRRK2 G2019S; 293 cells, LRRK2 G2019S) [%] | effect of desensitizing mutation A2016T/G2019S on compound-induced dephosphorylation (IP-Western) (LRRK2 A2016T/G2019S) | LRRK2 phosphorylation remaining, % of untreated G2019S (LRRK2 A2016T/G2019S; 293 cells, LRRK2 G2019S/A2016T) [%] | pIC50 (LRRK2 wild-type [4]) | pIC50 (LRRK2 G2019S [2]; SH-SY5Y, G2019S, +/- SD, * = partial inhibition, read-out: IC50, TR-FRET cell-based assay for Ser935 phosphorylation of LRRK2) | pIC50 (LRRK2 G2019S [5]) | pIC50 (LRRK2 wild-type [6]) | pIC50 (LRRK2 G2019S [7]) | pIC50 (LRRK2 wild-type [8])
1 | O=C(O)/C=C\C(=O)O.O=C1/C(=C/c2ccccc2)C[C@@]2(O)[C@H]3Cc4ccc(O)c5c4[C@@]2(CCN3CC2CC2)[C@H]1O5 [BNTX maleate] | < 4.00 | did not repress LRRK2 activity in vitro | 70% and 69.7% | 88 | 5.40 | < 4.70 | moderately reduced phosphorylation of all four residues |  |  |  |  |  |  |  |  |  | 
2 | Cc1ccc(S(=O)(=O)/C=C/C#N)cc1 [Bay 11-7821] | < 4.00 | did not repress LRRK2 activity in vitro |  | 94 | 5.40 | 4.70 | moderately reduced phosphorylation of all four residues | 85.5 | 50 | did not appear to be changed | 50 |  |  |  |  |  | 
3 | O=C1Nc2ccc(I)cc2/C1=C/c1cc(Br)c(O)c(Br)c1 [GW5074] |  |  |  |  |  |  |  |  |  |  |  | < 4.70 | < 4.70 | 6.55 | < 4.70 | 6.33 | < 4.70
4 | Cn1cc(/C=C2\C(=O)Nc3cccnc32)c2ccccc21 [GW 441756] | 6.49 |  |  | 72 | 5.66 | < 4.70 | inhibited phosphorylation of Ser910, Ser935, Ser955 and Ser973 | 69.7 |  | rescued phosphorylation |  |  |  |  |  |  | 
